Assay results from US20110066134A1, “Controlling Drug Transport and Current in Iontophoretic Onychomycosis Treatment” (Nitric Biotherapeutics, Inc., priority 2009, published 2011).
Several values for one entry are separate records, joined by “and”; a condition that tells them apart may be missing. Identical values can stand only once.

Columns and labels:
[1] = Cadaver toe delivery testing: iontophoretic terbinafine loading into nail, nail bed and surrounding tissue; assay type: in vitro ADME
Method: The results of drug loading experiments in cadaver toes reported by Nair [Nair et al., 2009, Pharm Res. 26(9):2194-201] were compared with current measurements made using the current test fixture of FIG. 1 and models for the two tissue groups. The experiments disclosed herein were conducted to determine 1) if a drug delivery gradient existed in masked drape applications, and how that correlated with drug assays in cadaver toes; and 2) to determine the proportion of current flowing in soft tissue vs. into nail in cadaver toe delivery, and to compare that with drug loading found by Nair in the two tissue types. It is believed that the transfer efficiency is higher in nail than into soft tissue.
Cadaver Toe Delivery Testing: Six cadaver toes were soaked in physiologic saline prior to treatment. Each terbinafine loaded applicator type (masked drape and full drape) was placed on the toe and iontophoretic treatment of 0.5 mA for 20 min was delivered. Post treatment, the nails, and sections of nail bed and surrounding tissue, were excised and analyzed. The amount of loaded terbinafine was compiled for each section. The iontophoretic power source and general configuration for the applicator on the cadaver toe are depicted in FIGS. 2A and 2B. Additional details regarding methods used and experimental details for cadaver toe delivery tests can be found in [Nair et al., 2009, Pharm Res. 26(9):2194-201].
FIG. 3A depicts drug assay results from cadaver nails following iontophoresis using a masked drape applicator, while FIG. 3B depicts current measurements taken at the same current levels through cadaver nail into agarose. Terbinafine sample data was compiled allocating samples to the same relative spacing as current sensing nodes in the current test fixture of FIG. 1. […] Results of finite element analysis for essentially masked electrodes over tissue that illustrate gradients with higher resolution can also be seen as provided by Kresteva and Papazov [Krasteva et al., Biomed Eng Online. 2002 Dec. 16; 1:7].
where tx is the transport number, F is Faraday's constant, A is area of application and zx is charge. For a particular “membrane” or “tissue type”, tx is the ratio of (charge, mobility and drug concentration of the charge carrier) to the product of these for all charge carriers, i is current and vcx is an electroosmotic term. Rather than determine individual elements of Kalia's formula, an aggregate transport number of skin (tskin) and nail & nail bed (tnail) can be calculated, essentially aggregating the factors and segmenting them into soft tissue plus nail/nail bed.
Where l is the amount of drug loaded for skin or nail. For a given dose in uA-min, the amount of terbinafine loaded into cadaver nail & nail bed vs. cadaver skin vs. delivered dose and calculated transfer number is
ltotal=lskin+lnail,lskin=dskin×tskin and lnail=dnail×tnail in ug/mA-min, (5)
where dskin, dnail is the product of current through skin (or nail) and time (dose), tskin, tnail is an aggregate of all factors related to delivery into skin (or nail) and lskin, lnail is the amount of terbinafine loaded into skin (or nail).
Table III lists the areas of delivery, current and transfer number calculations for the 6 cadaver toe trials. FIG. 9 depicts the average transport numbers including values calculated for current (for reference), skin alone in Franz cell and Rat.

clinical = conditions: human, in vivo
Method: Both applicator designs were used in clinical studies, including clinical nail samples at various iontophoretic dose levels taken 24 hours post treatment. For an average dose of about 8 mA-min, drug amounts for masked drape clipping assays averaged about 423 ug/g and full drape clippings averaged about 842 ug/g. The clipping sizes and volumes varied (n=80, mean=[…], sd=1.8). The amount of drug found in nail clippings for the masked drape treatments appeared to be lower than expected given the higher current concentration in nail vs. levels found for the full drape treatments at a lower level of nail current.
It is believed that the lower drug levels found during the clinical study from nail clippings in the masked drape applications was the result of samples at the extremities of the nail. As contemplated herein, the presence of a drug delivery gradient is supported by the location of clinical nail samples, the results of current distribution modeling and the cadaver toe experiments.
For example, the current measurement and drug loading maps for cadaver nail and toe as depicted in FIG. 3 indicate a significant gradient. Drug loading at the periphery of the nail was about 26 to 77 times less than drug loading in the center of the nail. Nail clippings for the masked drape group in the clinical studies provided herein were taken about 24 hours post treatment from the distal nail. Samples varied in size and volume, but averaged about 1.8 mm long. This size and location corresponds with the nail sampling performed in the cadaver toe experiments in the category of “peripheral 2” or “remaining” and depicted in FIG. 3A in about the 9 to 12 mm range. The current levels predicted by the model in the same areas correlate well with drug distribution samples, r=0.998, p=0.000.
Applying the cadaver transfer number for nail vs. skin to the in-vivo results yields an estimate for nail and drug delivered for both tissues (based upon resistance ratios calculated from measured voltages during the clinical study.)
FIG. 10 depicts the projected delivery of terbinafine into skin and nail for full drape using cadaver transfer number calculation. The mean level of terbinafine estimated to have been delivered with full drape treatments to patients in the clinical studies using this method is about 12.4 ug skin, 9.4 ug nail, as compared with a mean of about 15 ug skin and 14 ug nail for cadaver toes.

[2] = cadaver toe, full drape, 0.5 mA for 20 min, average of 6 trials
[3] = cadaver toe, full drape, 0.5 mA for 20 min, individual Trials 1-6

With `CN(C/C=C/C#CC(C)(C)C)Cc1cccc2ccccc12` [terbinafine] as the molecule, how does the “tf nail = (ug/cm^2)/(dose/cm^2), Avg” value [1, 2] read?
Its value is 5.180 (ug/cm^2)/(dose/cm^2).

And the “tf skin = (ug/cm^2)/(dose/cm^2), Avg” value [1, 2]?
Its value is 2.181 (ug/cm^2)/(dose/cm^2).

What about the “tf nail = (ug/cm^2)/(dose/cm^2)” value [1, 3] of the same molecule?
Its value is 6.358 (ug/cm^2)/(dose/cm^2) and 7.438 (ug/cm^2)/(dose/cm^2) and 3.805 (ug/cm^2)/(dose/cm^2) and 2.328 (ug/cm^2)/(dose/cm^2) and 3.917 (ug/cm^2)/(dose/cm^2) and 7.237 (ug/cm^2)/(dose/cm^2).

And the “tf skin = (ug/cm^2)/(dose/cm^2)” value [1, 3]?
The value was 1.745 (ug/cm^2)/(dose/cm^2) and 1.632 (ug/cm^2)/(dose/cm^2) and 1.975 (ug/cm^2)/(dose/cm^2) and 2.368 (ug/cm^2)/(dose/cm^2) and 1.961 (ug/cm^2)/(dose/cm^2) and 3.403 (ug/cm^2)/(dose/cm^2).

And the “aggregate transport number for the nail-only application compared with nail in the full drape application” value ([1]; cadaver toe, n=4, p=0.032)?
Its value is “less than the factor for nail in the full drape application”.

What about the “delivery into skin compared with nail & nail bed” value ([1]; cadaver toes, about 0.5 mA for 20 min, p=0.78, n=6) of the same molecule?
Its value is “statistical equivalence”.

And the “mean terbinafine delivered to nail” value ([1]; cadaver toes, full drape)?
The value was about 14 µg.

And the “mean terbinafine delivered to skin” value ([1]; cadaver toes, full drape)?
Its value is “about 15 ug”.

And the “mean level of terbinafine estimated to have been delivered to nail” value (clinical)?
The value was about 9.4 µg.

What about the “mean level of terbinafine estimated to have been delivered to skin” value (clinical) of the same molecule?
Its value is “about 12.4 ug”.

And the concentration at 24 h (clinical; Mean Nail Levels, Applicator Design Nail/Skin)?
The concentration at 24 h was 988000 ng/g.

And the concentration at 24 h (clinical; average drug amount in full drape clippings)?
Its concentration at 24 h is about 842000 ng/g.

And the concentration at 24 h (clinical; average drug amount in masked drape clipping assays)?
Its concentration at 24 h is about 423000 ng/g.
